{"source": "patent US20110045027A1", "about": "“Adjuvant” (Glaxo Group Limited, priority 2005, published 2011)", "key": {"mouse skin": {"system": "mouse skin", "assay": "In vivo delivery by intradermal injection and luciferase assay (pGL3CMV plasmid)", "parameters": "species or system Balb/c×C3H F1 female mice", "conditions": "FIG. 3, OPTIMEM, 0.5:1 (w/w gemini:DNA)", "text": "Plasmid pGL3CMV is a luciferase expression vector based upon pGL3 Basic, (Promega Corporation., Madison, Wis., USA), where the CMV immediate early promoter drives luciferase expression. The plasmid pGL3CMV was used in all gene expression studies in mouse skin biopsies and has been described in WO03/061636.\nGemini surfactants were mixed with plasmid DNA by drop by drop addition of the diluted gemini surfactant formulation (in OPTIMEM) to the diluted plasmid DNA formulation (in OPTIMEM) at room temperature whilst the mixture was being mixed using a Vortex mixer (Mini Vortexer, VWR). […]\nPlasmid DNA was delivered into the skin of Balb/c×C3H F1 female mice. […] Groups of 8-10 animals (or 4 to 5 animals with two injection sites) were analysed for skin gene expression. […]\nSkin samples were thawed to room temperature and disrupted in 500 ul of Passive Lysis Buffer™ (Promega Corporation, Madison, Wis., USA) using an IKA Labortechnic Ultra turrax T8 polytron. Luciferase enzyme activity was determined using a luciferase assay kit (Promega). […] Luciferase activity (RLU) was measured as counts per minute on the Victor 2 1420 multilabel HTS counter on the luminescence program (Wallac, Perkin Elmer). Total protein concentration was calculated by a Coomassie Plus protein assay reagent kit (Perbio) using the manufacturer's protocol. […] The absorbance was measured at 595 nm on a Molecular Devices Spectra Max 340. […]"}, "Balb/c mice [1]": {"system": "Balb/c mice", "assay": "Cellular immune responses by IFN-γ / IL2 ELISPOT after immunisation with plasmid p7313iTrng", "type": "in vivo", "conditions": "Example 48; intradermal delivery, FIGS. 5 to 10", "text": "Plasmid p7313iTrng, is a vector where the CMV immediate early promoter drives the expression of a fusion antigen, RNG, consisting of parts of the HIV reverse transcriptase, nef and gag genes. The plasmid p7313iTrng was used in all immune response studies in mouse (WO03/025003).\nAcclimatised 6-8 week old Female Balb/c mice were maintained under general anaesthesia using an oxygen-controlled inhaled Isoflourane mask for application by intradermal injection to the pre-shaved lower back above the base of the tail. Where necessary mice were given Rimadyl (Carprofen) as an analgesic in a sub-cutaneous dose of 5 mg/Kg, diluted 1:10 and delivered at 20 μl/mouse. […]\nMice were killed by cervical dislocation and spleens were collected into ice-cold PBS. […] After two washes in PBS to remove particulate matter the concentration of cells in the single cell suspension was assessed by counting in a Guava Flow Cytometer. […] After overnight culture, IFN-γ or IL2 producing cells were visualised by application of anti-murine IFN-γ-biotin or IL2-biotin labelled antibody (Pharmingen) followed by streptavidin-conjugated alkaline phosphatase and quantitated using image analysis.\nRepresentatives of 3 classes of gemini surfactants were assessed for their ability to induce both cellular and humoral immune responses upon delivery to mouse skin through the intradermal route. […]"}, "Balb/c mice [2]": {"system": "Balb/c mice", "assay": "Humoral responses by ELISA, antigen-specific whole IgG (HIV RNG fusion protein)", "type": "in vivo", "conditions": "Example 48; intradermal delivery, FIG. 11, day 14 post-boost", "experimental": "Acclimatised 6-8 week old Female Balb/c mice were maintained under general anaesthesia using an oxygen-controlled inhaled Isoflourane mask for application by intradermal injection to the pre-shaved lower back above the base of the tail. Where necessary mice were given Rimadyl (Carprofen) as an analgesic in a sub-cutaneous dose of 5 mg/Kg, diluted 1:10 and delivered at 20 μl/mouse. Injections of up to 50 μl of freshly formulated DNA with or without gemini surfactant were given via BD 0.5 ml insulin syringes with 29 g needles.\nThe humoral response was assessed by measuring antigen-specific whole IgG antibody levels (eg. to HIV RNG fusion protein) in the serum samples collected after primary and boost immunisation. […] The amount of bound antibody was determined after 4 further washes (as above) followed by addition of TMB substrate solution (T-8540-Sigma). After 30 minutes at 20° C. protected from light, the reaction is stopped with 1M sulphuric acid and absorbance read at 450 nm. […]\nHumoral responses to RNG fusion peptide (WO03/025003), as serum whole IgG, were monitored at day 14 post-boost (FIG. 11). […]\nHumoral responses were also analysed in this example. The humoral responses were measured as whole serum IgG and data were collected both after a homologous prime and boost and again after a heterologous boost with NHP Adenovirus p6GRN, see FIG. 42. […]"}, "[3]": {"assay": "Particle size of gemini surfactant solutions by quasi-elastic light scattering (QELS)", "type": "physicochemical", "conditions": "fresh solutions stored at 4° C., particle size at bi-weekly intervals, 10-week study, FIG. 28", "experimental": "All gemini surfactants were prepared from lyophilised stocks by vortex re-suspension in pure water at a stock concentration of 1 mg/ml stored at 4° C. Gemini surfactants were diluted either in pure water or were directly diluted in Optimem®1 (GIBCO Invitrogen) for immediate use. Where gemini surfactants were formulated together with other helper lipids such as DOPE, these were co-lyophilised at a 1:1, (w/w) ratio and similarly vortex re-suspended in pure water at a stock concentration of 1 mg/ml stored at 4° C.\n(§1) The size of the particles formed by gemini surfactants and their complexes with plasmid DNA was measured by quasi-elastic light scattering (QELS) (Finsy, R., Advances in Colloid and Interface Science (1994) 52 (19 September):79-143; Gittings, M. R., and Saville, D. A., Colloids and Surfaces A: Physicochemical and Engineering Aspects (1998) 141: 111-117). Samples (50 μl) were analysed using a Brookhaven Instruments Corporation particle size analyser (BIC 90 Plus) following the manufacturer's instructions: 10 measurements, each consisting of 10 runs were taken per sample. […] The average particle size was automatically derived from the raw data by the instrument and expressed as the mean hydrodynamic diameter in nanometers (nm). […]\nThe colloidal properties of gemini surfactant solutions were monitored over time in order to analyse their apparent instability in greater detail. […]"}, "plasmid DNA (pdpSC18)": {"system": "plasmid DNA (pdpSC18)", "assay": "Particle size of gemini surfactant-plasmid DNA complexes (lipoplexes) by QELS", "type": "physicochemical", "conditions": "buffers covering pH 6.5 to pH 4.5, FIG. 33", "experimental": "Gemini surfactants were mixed with plasmid DNA by drop by drop addition of the diluted gemini surfactant formulation (in OPTIMEM) to the diluted plasmid DNA formulation (in OPTIMEM) at room temperature whilst the mixture was being mixed using a Vortex mixer (Mini Vortexer, VWR). The ratio of gemini surfactant to plasmid DNA was varied from 0.2:1 (w/w) to 4:1 (w/w) so that for a final volume of 50 ul per delivery, the formulation contained 10 ug of plasmid DNA with gemini surfactant at the correct ratio. Gemini: DNA mixtures or complexes were left at room temperature for 15 minutes post mixing to form and were then delivered to animals within 15 to 30 minutes. […]\nas §1"}}, "data": [{"smiles": "CCCCCCCC/C=C\\CCCCCCCC(=O)NCCCN(CCCCN(CCCNC(=O)CCCCCCCCCCCCCCCCC)C(=O)[C@H](N)CCCCN)C(=O)[C@H](N)CCCCN", "note": "[GSC103 D-Lys, Oleic Acid, Stearic Acid]", "values": [{"measurement": "gene delivery and/or expression in mouse skin versus DNA with DMRIE-C or electroporation", "setting": "mouse skin", "result": "exception"}]}, {"smiles": "CCCCCCCC/C=C\\CCCCCCCC(=O)NCCCN(CCCCN(CCCNC(=O)CCCCCCC/C=C\\CCCCCCCC)C(=O)[C@@H](N)CCCCN)C(=O)[C@@H](N)CCCCN", "note": "[GSC103-L-Lys]", "values": [{"measurement": "level of cellular immune responses versus PMED at boost", "setting": "Balb/c mice [1]", "result": "comparable to those induced by PMED at boost"}, {"measurement": "level of humoral immune responses versus PMED at boost", "setting": "Balb/c mice [2]", "result": "comparable to those induced by PMED at boost"}, {"measurement": "storage time for which the solution remained stable before particle formation", "setting": "[3]", "result": 2, "unit": "weeks"}, {"measurement": "pH sensitivity of lipoplexes (particle size versus pH)", "setting": "plasmid DNA (pdpSC18)", "result": "fluctuated with falling pH"}]}]}
